Reference: patent US20010053796A1, “Delta-aminolevulinic acid for prevention and treatment of infection microorganisms and parasite” (priority 2000, published 2001)
Converted amounts (≈) assume the structure as drawn.

Legend:
[1] = test system: Staphylococcus epidermidis; experiment: MIC assay by flat drug disc method; assay type: cell-based; conditions: prepared by the inventors
Method: (§1) Pathogenic index bacteria used in this experiment are Edwardsiella tard, Streptococcus sp., Staphylococcus sp., Staphylococcus epidermidis, Pseudomonas sp., Vibrio anguillarum which are collected from the marine fish farm nearby Yeosu. In solid culture, they were cultured in TSA (tryptic soy agar) supplemented with 0.2% NaCl flat media and in liquid culture, they were prepared by culturing in BHI broth for 24 hrs and setting the O.D. value as 1.0. δ-aminolevulinic acid used in this experiment were one on the market (Sigma) and one formulated by inventors of the present invention (Korean patent application No. 1998-41898). Each 0.167 g δ-aminolevulinic acid were dissolved in 1.0 mL sterilized distilled water was used as undiluted solution. 1.0 M δ-aminolevulinic acid was 2-fold diluted with BHI broth by stages up to 64-fold and prepared for test solution to examine pathogenic bacteria proliferation-prohibiting effect. […] In control group, instead of δ-aminolevulinic acid, BHI broth bacteria suspension were mixed with (1:1) and then observed with the same method above. MIC assay by δ-aminolevulinic acid for major pathogenic bacteria of marine cultivating fishes, Edwardsiella tard, Streptococcus sp., Staphylococcus sp., Staphylococcus epidermidis, Pseudomonas sp., Vibrio anguillarum was carried out by flat drug disc method. 100 μL of each bacteria in a culture solution was mixed with fixed amount of top agar and coated to TSA agar. 1.0 M δ-aminolevulinic acid solution was diluted by 2 folds in PBS and 10 μL of each dilution were absorbed to sterilized disc. After incubation at 23˜25° C. for 2˜3 days, antibacterial effect was indicated by measuring the size (mm) of clear zone. In control group, PBS was absorbed into disc instead of δ-aminolevulinic acid dilution solution with the same amount and observed. From the result of this experiment using δ-aminolevulinic acid on the market, proliferation-inhibiting effects of pathogenic bacteria according to δ-aminolevulinic acid concentration are shown in Table 2a (Edwardsiella tard) and Table 2b (Streptococcus sp.). Below 1/32 fold (31 mM) of δ-aminolevulinic acid dilution rate, proliferation of both bacteria was inhibited. […] The experimental result of δ-aminolevulinic acid prepared by the inventors has shown in Table 3 and no difference in effects from δ-aminolevulinic acid on the market.

[2] = test system: Staphylococcus sp.; experiment: MIC assay by flat drug disc method; assay type: cell-based; conditions: Staphylococcus sp. (second of two lines); prepared by the inventors
Method: as §1

[3] = test system: Streptococcus sp.; experiment: MIC assay by flat drug disc method; assay type: cell-based; conditions: line printed Staphylococcus sp. (first of two), prepared by the inventors
Method: as §1

[4] = test system: Vibrio anguillarum; experiment: Prevention effect for artificial infection (abdominal injection of bacteria); assay type: in vivo, Sebastes schlegeli; conditions: for Mortality during Cultivation: dead of 20 fish
Method: The water temperature was maintained at 20° C. (±2° C. ) throughout the experiment.
As the same method of above Experiment 1, fishes of both control group and experiment group were prepared and artificially infected by direct abdominal injection of Edwardsiella tarda 10^5 CFU per 1 fish. Each experimental fish was moved to fish tanks for monitoring and monitored for mortality according to infection for 2 weeks and viability after 2 weeks.
Bastardhalibut and Sebastes schlegeli were infected by Vibrio anguillarum through abdominal injection with the same method of fish breeding; δ-aminolevulinic acid treatment and artificial infection carried out in Experiment 1 and 2.

[5] = test system: Edwardsiella tarda; experiment: Treatment effect of infected fry by digestion in breeding water; assay type: in vivo, Bastardhalibut; conditions: 50 fish
Method: (§2) To be used as experimental fish in this example, fry of Bastardhalibut and Sebastes schlegeli (mean body weight 2 g), 50 per each breeding tank, were preliminary-bred for 1 week and stabilized. […] The artificial infection methods were carried out by the digestion method. Pathogenic organisms were applied into fish tanks and digested in seawater, wherein the concentration of organisms has adjusted to 10^4 CFU/mL for an hour, and infected. Treatment conditions are as follows. After artificial infection. Infected fishes were moved to fish tanks and kept in the infection period for 3 days. On the fourth day of infection, 0.1, 1.0, 5 and 10 ppm δ-aminolevulinic acid were introduced to use as breeding water. Fish was bred in aerobic condition for 1˜24 hours without exchanging water and then, bred for 2 weeks after exchanging with clean seawater. Then, they were monitored to check for the mortality of fish according to infection. In the control groups, after each bacteria were identically introduced through the digestion method, mortality of Bastardhalibut and Sebastes schlegeli according to bacteria infection was identified while breeding with non-treated condition of δ-aminolevulinic acid. As a result of this experiment, δ-aminolevulinic acid-treated groups have shown high viability in both Bastardhalibut (Table 12˜Table 15) and Sebastes schlegeli (Table 16˜Table 19).

[6] = test system: Pseudomonas sp.; experiment: as above; assay type: in vivo, Bastardhalibut; conditions: 50 fish
Method: as §2

[7] = test system: Staphylococcus epidermis; experiment: as above; assay type: in vivo, Bastardhalibut; conditions: 50 fish
Method: as §2

[8] = test system: Staphylococcus sp.; experiment: as above; assay type: in vivo, Bastardhalibut; conditions: 50 fish
Method: as §2

[9] = test system: Streptococcus sp.; experiment: as above; assay type: in vivo, Bastardhalibut; conditions: 50 fish
Method: as §2

[10] = test system: Vibrio anguillarum; experiment: as above; assay type: in vivo, Bastardhalibut; conditions: 50 fish
Method: as §2

[11] = test system: Vibrio anguillarum; experiment: Treatment effect of infected fry by oral administration in feed; assay type: in vivo, Bastardhalibut; conditions: 50 fish
[12] = digestion 0.1 ppm from 4th day of infection, Bastard halibut fry
[13] = digestion 1.0 ppm from 4th day of infection, Bastardhalibut fry
[14] = digestion 5.0 ppm from 4th day of infection, in Bastard halibut
[15] = digestion 10 ppm from 4th day of infection, Bastardhalibut fry
[16] = digestion 10 ppm from 4th day of infection
[17] = digestion 5.0 ppm from 4th day of infection

`NCC(=O)CCC(=O)O` [δ-aminolevulinic acid] showed an MIC [1] of 62 µg/mL (≈ 473 µM), an MIC [2] of 59.6 µg/mL (≈ 455 µM) and an MIC [3] of 72.9 µg/mL (≈ 556 µM). The Viability ([4]; orally, 0.1 ppm in feed) was 60%, the “Mortality during Cultivation” value ([4]; orally, 0.1 ppm in feed) was 8 and the Viability ([4]; orally, 1.0 ppm in feed) was 65%. The “Mortality during Cultivation” value ([4]; orally, 1.0 ppm in feed) was 7, the Viability ([4]; orally, 10 ppm in feed) was 80% and the “Mortality during Cultivation” value ([4]; orally, 10 ppm in feed) was 4. For the same molecule, the Viability ([4]; orally, 100 ppm in feed) was 90%, the “Mortality during Cultivation” value ([4]; orally, 100 ppm in feed) was 2 and the Viability ([4]; to fish tanks, 0.01 ppm) was 60%. The “Mortality during Cultivation” value ([4]; to fish tanks, 0.01 ppm) was 8, the Viability ([4]; to fish tanks, 0.1 ppm) was 60% and the “Mortality during Cultivation” value ([4]; to fish tanks, 0.1 ppm) was 8. The Viability ([4]; to fish tanks, 1.0 ppm) was 85%, the “Mortality during Cultivation” value ([4]; to fish tanks, 1.0 ppm) was 1 and the Viability ([4]; to fish tanks, 10 ppm) was 90%. For the same molecule, the “Mortality during Cultivation” value ([4]; to fish tanks, 10 ppm) was 2, the Viability [5, 12] was 54% and the Viability [5, 13] was 76%. The Viability [5, 14] was 86%, the Viability [5, 15] was 84% and the Viability [6, 12] was 50%. The Viability [6, 13] was 70%, the Viability [6, 14] was 80% and the Viability [6, 16] was 84%. The Viability [7, 12] was 42%, the Viability [7, 13] was 66% and the Viability [7, 14] was 80%. It also gave a Viability [7, 16] of 84%, a Viability [8, 12] of 54% and a Viability [8, 13] of 66%. For the same molecule, the Viability [8, 17] was 84%, the Viability [8, 15] was 84% and the Viability [9, 12] was 46%. For the same molecule, the Viability [9, 13] was 64%, the Viability [9, 14] was 84% and the Viability [9, 15] was 90%. For the same molecule, the Viability [10, 12] was 56%, the Viability [10, 13] was 66% and the Viability [10, 17] was 84%. It also gave a Viability [10, 15] of 80%, a Viability ([11]; feed 0.1 ppm from 4th day of infection) of 44% and a Viability ([11]; feed 1.0 ppm from 4th day of infection) of 72%. For the same molecule, the Viability ([11]; feed 50 ppm from 4th day of infection) was 90% and the Viability ([11]; feed 100 ppm from 4th day of infection) was 88%.
